Test results as given in EP0881220A1, “DIARYLSULTAM DERIVATIVES” (priority 1996, dated 1997).
Structures can show the parent of a compound that is named as a salt. Where two headings read alike, the source gives them in different places.

Key:
sigma 2 binding site = target: T1, sigma 2 binding site (Rattus norvegicus, UniProt Q5U3Y7); experiment: Sigma 2 selective receptor binding inhibition assay with [^3H]-di-o-tolylguanidine; settings: for S2/S1 Ratio: ratio of Sigma 2 Ki to Sigma 1 Ki
T1 sequence (Q5U3Y7 1-176): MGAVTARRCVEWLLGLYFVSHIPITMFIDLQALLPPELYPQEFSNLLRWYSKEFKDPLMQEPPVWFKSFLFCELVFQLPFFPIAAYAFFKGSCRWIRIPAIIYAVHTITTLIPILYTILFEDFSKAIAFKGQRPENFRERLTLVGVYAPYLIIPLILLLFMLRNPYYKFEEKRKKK

sigma 1 binding site [1] = target: T2, sigma 1 binding site (Cavia porcellus, UniProt Q60492); experiment: biochemical
T2 sequence (Q60492 whole entry): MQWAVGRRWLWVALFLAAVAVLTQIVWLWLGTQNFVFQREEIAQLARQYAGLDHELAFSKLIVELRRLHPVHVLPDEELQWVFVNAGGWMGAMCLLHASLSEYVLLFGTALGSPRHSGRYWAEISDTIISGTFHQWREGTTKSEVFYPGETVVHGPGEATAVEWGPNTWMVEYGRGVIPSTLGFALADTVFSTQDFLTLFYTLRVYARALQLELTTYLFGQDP

Dopamine D2 = target: T3, Dopamine D2 (Rattus norvegicus, UniProt P61169); experiment: Binding to dopaminergic receptors using rat striata (method of Terai et al.)
T3 construct: dopaminergic receptors was also measured using rat striata; from tissue; host or cells: rat striata
T3 sequence (P61169 whole entry): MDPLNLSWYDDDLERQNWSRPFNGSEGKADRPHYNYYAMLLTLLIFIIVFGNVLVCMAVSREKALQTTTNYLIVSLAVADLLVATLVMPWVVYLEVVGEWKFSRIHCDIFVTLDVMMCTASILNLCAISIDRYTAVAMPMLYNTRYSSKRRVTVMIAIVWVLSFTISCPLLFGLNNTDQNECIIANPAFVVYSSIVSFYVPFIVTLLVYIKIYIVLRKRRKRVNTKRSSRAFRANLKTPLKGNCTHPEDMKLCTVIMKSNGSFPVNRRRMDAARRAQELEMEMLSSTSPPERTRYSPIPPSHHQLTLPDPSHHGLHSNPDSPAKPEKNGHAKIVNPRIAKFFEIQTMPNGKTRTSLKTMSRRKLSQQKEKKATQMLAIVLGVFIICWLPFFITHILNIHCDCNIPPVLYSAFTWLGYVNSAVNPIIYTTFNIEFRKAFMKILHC
Experimental: The binding of these compounds to dopaminergic receptors was also measured using rat striata according to the method described by Terai et al. (M. Terai, et al., Eur. J. Pharmacol. 1989, 173, 177).

sigma 1 binding site [2] = target: T2, sigma 1 binding site

O=S1(=O)c2ccccc2Nc2ccccc2N1CC1CCN(CC(O)c2ccc(F)cc2F)CC1 (racemic) [Example 3, (R,S)-1-(2,4-Difluorophenyl)-2-[4-(6,11-dihydrodibenzo[c,f][1,2,5]thiadiazepin-6-yl-methyl)piperidin-1-yl]ethanol S,S-dioxide hydrochloride]
Ki (sigma 2 binding site): 16 nM | S2/S1 Ratio (sigma 2 binding site): 0.06 | Ki (sigma 1 binding site [1]): 280 nM | Ki (Dopamine D2): 700 nM

Cc1ccccc1C(O)CN1CCC(CN2c3ccccc3Nc3ccccc3S2(=O)=O)CC1 (racemic) [Example 5, (R,S)-1-(2-Methylphenyl)-2-[4-(6,11-dihydrodibenzo[c,f][1,2,5]thiadiazepin-6-ylmethyl)piperidin-1-yl]ethanol S,S-dioxide hydrochloride]
Ki (sigma 2 binding site): 13 nM | S2/S1 Ratio (sigma 2 binding site): 0.2 | Ki (sigma 1 binding site [1]): 71 nM | Ki (Dopamine D2): 79 nM

CN1c2ccccc2N(CC2CCN(CC(O)C34CC5CC(CC(C5)C3)C4)CC2)S(=O)(=O)c2ccccc21 (racemic) [Example 6, (R,S)-1-(1-Adamantyl)-2-[4-(11-methyl-6,11-dihydrodibenzo[c,f][1,2,5]thiadiazepin-6-ylmethyl)piperidin-1-yl]ethanol S,S-dioxide hydrochloride]
Ki (sigma 2 binding site): 2.7 nM | S2/S1 Ratio (sigma 2 binding site): 0.001 | Ki (sigma 1 binding site [1]): 2100 nM | Ki (Dopamine D2): 170 nM

CN1c2ccccc2N(CC2CCN(CC(O)c3ccc(F)cc3)CC2)S(=O)(=O)c2ccccc21 (racemic) [Example 7, (R,S)-1-(4-Fluorophenyl)-2-[4-(11-methyl-6,11-dihydrodibenzo[c,f][1,2,5]thiadiazepin-6-ylmethyl)piperidin-1-yl]ethanol S,S-dioxide hydrochloride]
Ki (sigma 2 binding site): 4 nM | S2/S1 Ratio (sigma 2 binding site): 0.007 | Ki (sigma 1 binding site [1]): 540 nM | Ki (Dopamine D2): 320 nM

O=S1(=O)c2ccccc2Nc2ccc(Cl)cc2N1CC1CCN(CC(O)C23CC4CC(CC(C4)C2)C3)CC1 (racemic) [Example 8, (R,S)-1-(1-Adamantyl)-2-[4-(8-chloro-6,11-dihydrodibenzo[c,f][1,2,5]thiadiazepin-6-ylmethyl)piperidin-1-yl]ethanol S,S-dioxide hydrochloride]
Ki (sigma 2 binding site): 16 nM | S2/S1 Ratio (sigma 2 binding site): 0.03 | Ki (sigma 1 binding site [1]): 630 nM | Ki (Dopamine D2): 410 nM

O=S1(=O)c2ccccc2Oc2ccccc2N1CC1CCN(CC(O)c2ccc(Cl)cc2)CC1 (racemic) [Example 11, (R,S)-1-(4-Chlorophenyl)-2-[4-(6H-dibenzo[b,f][1,4,5]oxathiazepin-6-ylmethyl)piperidin-1-yl]ethanol S,S-dioxide hydrochloride]
Ki (sigma 2 binding site): 2.3 nM | S2/S1 Ratio (sigma 2 binding site): 0.05 | Ki (sigma 1 binding site [1]): 43 nM | Ki (Dopamine D2): 200 nM

COc1ccc(C(O)CN2CCC(CN3c4ccccc4Oc4ccccc4S3(=O)=O)CC2)cc1 (racemic) [Example 12, (R,S)-1-(4-Methoxyphenyl)-2-[4-(6H-dibenzo[b,f][1,4,5]oxathiazepin-6-ylmethyl)piperidin-1-yl]ethanol S,S-dioxide hydrochloride]
Ki (sigma 2 binding site): 7.1 nM | S2/S1 Ratio (sigma 2 binding site): 0.09 | Ki (sigma 1 binding site [1]): 78 nM | Ki (Dopamine D2): 280 nM

Cc1ccc(C(O)CN2CCC(CN3c4ccccc4Oc4ccccc4S3(=O)=O)CC2)cc1 (racemic) [Example 13, (R,S)-1-(4-Methylphenyl)-2-[4-(6H-dibenzo[b,f][1,4,5]oxathiazepin-6-ylmethyl)piperidin-1-yl]ethanol S,S-dioxide hydrochloride]
Ki (sigma 2 binding site): 1.6 nM | S2/S1 Ratio (sigma 2 binding site): 0.02 | Ki (sigma 1 binding site [1]): 89 nM | Ki (Dopamine D2): 180 nM

O=S1(=O)c2cc(Cl)ccc2Oc2ccccc2N1CC1CCN(CC(O)C23CC4CC(CC(C4)C2)C3)CC1 (racemic) [Example 14, (R,S)-1-(1-Adamantyl)-2-[4-(3-chloro-6H-dibenzo[b,f][1,4,5]oxathiazepin-6-ylmethyl)piperidin-1-yl]ethanol S,S-dioxide hydrochloride]
Ki (sigma 2 binding site): 3.1 nM | S2/S1 Ratio (sigma 2 binding site): 0.008 | Ki (sigma 1 binding site [1]): 380 nM | Ki (Dopamine D2): 120 nM

O=S1(=O)c2cc(Cl)ccc2Oc2ccccc2N1CC1CCN(CC(O)c2ccccc2)CC1 (racemic) [Example 15, (R,S)-1-Phenyl-2-[4-(3-chloro-6H-dibenzo[b,f][1,4,5]oxathiazepin-6-yl-methyl)piperidin-1-yl]ethanol S,S-dioxide hydrochloride]
Ki (sigma 2 binding site): 1.3 nM | S2/S1 Ratio (sigma 2 binding site): 0.01 | Ki (sigma 1 binding site [1]): 110 nM | Ki (Dopamine D2): 180 nM

O=S1(=O)c2cc(Cl)ccc2Oc2ccccc2N1CC1CCN(CC(O)c2ccc(F)cc2)CC1 (racemic) [Example 16, (R,S)-1-(4-Fluorophenyl)-2-[4-(3-chloro-6H-dibenzo[b,f][1,4,5]oxathiazepin-6-ylmethyl)piperidin-1-yl]ethanol S,S-dioxide hydrochloride]
Ki (sigma 2 binding site): 1.1 nM | S2/S1 Ratio (sigma 2 binding site): 0.01 | Ki (sigma 1 binding site [1]): 85 nM | Ki (Dopamine D2): 210 nM

O=S1(=O)c2cc(Cl)ccc2Oc2ccccc2N1CC1CCN(CC(O)c2ccc3ccccc3c2)CC1 (racemic) [Example 17, (R,S)-1-(2-Naphthyl)-2-[4-(3-chloro-6H-dibenzo[[b,f][1,4,5]oxathiazepin-6-ylmethyl)piperidin-1-yl]ethanol S,S-dioxide hydrochloride]
Ki (sigma 2 binding site): 4.2 nM | S2/S1 Ratio (sigma 2 binding site): 0.008 | Ki (sigma 1 binding site [1]): 510 nM | Ki (Dopamine D2): 350 nM

O=S1(=O)c2cc(Cl)ccc2Oc2ccccc2N1CC1CCN(CC(O)c2ccc(C(F)(F)F)cc2)CC1 (racemic) [Example 18, (R,S)-1-(4-Trifluoromethylphenyl)-2-[4-(3-chloro-6H-dibenzo[b,f][1,4,5]oxathiazepin-6-ylmethyl)piperidin-1-yl]ethanol S,S-dioxide hydrochloride]
Ki (sigma 2 binding site): 3.2 nM | S2/S1 Ratio (sigma 2 binding site): 0.003 | Ki (sigma 1 binding site [1]): 1100 nM | Ki (Dopamine D2): 350 nM

O=S1(=O)c2cc(Cl)ccc2Oc2ccccc2N1CC1CCN(CC(O)c2ccc(OC(F)(F)F)cc2)CC1 (racemic) [Example 19, (R,S)-1-(4-Trifluoromethoxyphenyl)-2-[4-(3-chloro-6H-dibenzo[b,f][1,4,5]oxathiazepin-6-ylmethyl)piperidin-1-yl]ethanol S,S-dioxide hydrochloride]
Ki (sigma 2 binding site): 8.4 nM | S2/S1 Ratio (sigma 2 binding site): 0.007 | Ki (sigma 1 binding site [1]): 1200 nM | Ki (Dopamine D2): 270 nM

COc1ccc2c(c1)N(CC1CCN(CC(O)C34CC5CC(CC(C5)C3)C4)CC1)S(=O)(=O)c1cc(Cl)ccc1O2 (racemic) [Example 20, hydrochloride]
Ki (sigma 2 binding site): 10 nM | S2/S1 Ratio (sigma 2 binding site): 0.003 | Ki (sigma 1 binding site [1]): 3500 nM | Ki (Dopamine D2): 790 nM

COc1ccc2c(c1)N(CC1CCN(CC(O)c3ccc(F)cc3)CC1)S(=O)(=O)c1cc(Cl)ccc1O2 (racemic) [Example 21, (R,S)-1-(4-Fluorophenyl)-2-[4-(3-chloro-8-methoxy-6H-dibenzo[b,f][1,4,5]oxathiazepin-6-ylmethyl)piperidin-1-yl]ethanol S,S-dioxide hydrochloride]
Ki (sigma 2 binding site): 9 nM | S2/S1 Ratio (sigma 2 binding site): 0.02 | Ki (sigma 1 binding site [1]): 420 nM | Ki (Dopamine D2): 820 nM

COc1ccc2c(c1)N(CC1CCN(CC(O)c3ccc(F)cc3)CC1)S(=O)(=O)c1ccccc1O2 (racemic) [Example 22, (R,S)-1-(4-Fluorophenyl)-2-[4-(8-methoxy-6H-dibenzo[b,f][1,4,5]oxathiazepin-6-ylmethyl)piperidin-1-yl]ethanol S,S-dioxide hydrochloride]
Ki (sigma 2 binding site): 3.7 nM | S2/S1 Ratio (sigma 2 binding site): 0.05 | Ki (sigma 1 binding site [1]): 70 nM | Ki (Dopamine D2): 870 nM

CN(CCCCN1c2ccccc2Oc2ccc(Cl)cc2S1(=O)=O)CC(O)C12CC3CC(CC(C3)C1)C2 (racemic) [Example 23, (R,S)-1-(1-Adamantyl)-2-[N-methyl-N-[4-(3-chloro-6H-dibenzo[b,f][1,4,5]oxathiazepin-6-yl)butyl]amino]ethanol S,S-dioxide hydrochloride]
Ki (sigma 2 binding site): 35 nM | S2/S1 Ratio (sigma 2 binding site): 0.02 | Ki (sigma 1 binding site [1]): 1600 nM | Ki (Dopamine D2): 1100 nM

CN(CCCCN1c2ccccc2Oc2ccc(Cl)cc2S1(=O)=O)CC(O)c1ccc(F)cc1 (racemic) [Example 24, (R,S)-1-(4-Fluorophenyl)-2-[N-methyl-N-[4-(3-chloro-6H-dibenzo[b,f][1,4,5]oxathiazepin-6-yl)butyl]amino]ethanol S,S-dioxide hydrochloride]
Ki (sigma 2 binding site): 19 nM | S2/S1 Ratio (sigma 2 binding site): 0.1 | Ki (sigma 1 binding site [1]): 140 nM | Ki (Dopamine D2): 800 nM

O=C(CN1CCC(CN2c3ccccc3Nc3ccccc3S2(=O)=O)CC1)C12CC3CC(CC(C3)C1)C2 [Example 1, 6-[[1-[2-(1-Adamantyl)-2-oxoethyl]-4-piperidinyl]methyl]-6,11-dihydrodibenzo[c,f][1,2,5]thiadiazepine 5,5-dioxide·hydrochloride]
Ki (sigma 2 binding site): 5 nM | S2/S1 Ratio (sigma 2 binding site): 0.03 | Ki (sigma 1 binding site [1]): 150 nM | Ki (Dopamine D2): > 1000 nM

O=C(O)/C=C/C(=O)O.O=S1(=O)c2ccccc2Nc2ccccc2N1CC1CCN(C[C@H](O)C23CC4CC(CC(C4)C2)C3)CC1.O=S1(=O)c2ccccc2Nc2ccccc2N1CC1CCN(C[C@H](O)C23CC4CC(CC(C4)C2)C3)CC1 [Example 2, (R,S)-1-(1-Adamantyl)-2-[4-(6,11-dihydrodibenzo[c,f][1,2,5]thiadiazepin-6-ylmethyl)piperidin-1-yl]ethanol S,S-dioxide hemifumarate]
S2/S1 Ratio (sigma 2 binding site): 0.01 | Ki (sigma 2 binding site; read-out: Sigma 2 Ki(nM ± SEM), [^3H]-DTG 1 nM, rat liver crude P2 membrane fraction, 500 nM pentazocine, 2 hours at 25°C): 4.1 nM | Ki (sigma 1 binding site [2]): 320 nM | Ki (Dopamine D2): 450 nM
